Test results as given in patent EP0353047B1, “Use of imidazopyrazole derivatives as analgesics and anti-inflammatory agents” (Sankyo Company Limited, priority 1988, dated 1990).
Marks after values point to notes of the source that are not given here.

Experiments:
[1] = test system: carrageenan-induced edema; assay: Anti-inflammatory effect (carrageenan edema method); format: in vivo, rats of the Wistar strain; conditions: oral, Wistar rats; for ED50: Rattus norvegicus, ID₅₀
[2] = test system: rats of the Wistar strain; assay: Analgesic effect (Randall-Selitto method); format: in vivo; conditions: oral; for ED50 / responders at 50 mg/kg: Rattus norvegicus; for responders at 50 mg/kg / Analgesic effect (Randall-Selitto): fraction of animals; for Analgesic effect (Randall-Selitto): dose 25 mg/kg (*)
Experimental: These tests were conducted according to the Randall-Selitto method using rats of the Wistar strain [L.O. Randall, J.J. Selitto: Arch. int. Pharmacodyn. 111, 409 (1957)]. Except where otherwise noted, the dose of test compound was 50 mg/kg.

gastric acid secretions = assay: Anti-ulcer activity: suppression of gastric acid secretions (Shay method); format: in vivo, rats; conditions: gastric acid secretion
[3] = test system: carrageenan-induced edema; assay: Anti-inflammatory effect (carrageenan edema method); format: in vivo, rats of the Wistar strain; conditions: Rattus norvegicus, percent inhibition of carrageenan-induced edema, oral
Experimental: The percent inhibition against carrageenan-induced edema in rats of the Wistar strain, using the conventional method of C.A. Winter, E.A. Risley, G.W. Nuss [J. Pharmacol., Exp. Therap., 141, 369 (1963)]. Except where otherwise noted, the dose of test compound was 50 mg/kg.

[4] = test system: male mice of the ddy strain; assay: Acute toxicity; format: in vivo; conditions: fraction of animals; dose 300 mg/kg oral in 0.5% carboxymethyl cellulose, observed for 7 days
Experimental: The test animals employed were male mice of the ddy strain (age: 5 weeks). […] The dose of test compound was 300 mg/kg.

[5] = test system: inflammation induced by anti-rat IgG rabbit serum; assay: Anti-inflammatory effect (reversed passive alusas reaction, Evans blue extraction); format: in vivo, rats of the Sprague-Dawley strain; conditions: oral; for inhibition in vivo at 50 mg/kg / inhibition in vivo at 25 mg/kg: 2.5 h, percent inhibition of inflammation relative to control group; for ED50: ID₅₀, Sprague-Dawley rats
Experimental: The test animals were rats of the Sprague-Dawley strain, which had first been fasted for 17 hours. The hair was trimmed from their dorsal portions by means of a hair clipper, and 0.1 ml/site of anti-rat IgG rabbit serum was injected intracutaneously at the trimmed part to induce inflammation. Except in the case of the control animals, to which no anti-inflammatory drug was administered, the test drug was administered orally immediately before inflammation was induced. Except where otherwise noted, the dose of test compound was 50 mg/kg. Two hours after induction of inflammation, a 1% by volume solution of Evans blue in physiological saline was injected intravenously into the tail of each rat in an amount of 1 ml per each animal. 30 minutes after this injection, the rats were sacrificed with carbon dioxide and their skins were peeled off to extract the chromogen of the blue spots. In more detail, the skins were cut into small pieces and extracted with 5 ml of an extraction solvent at room temperature for 2 days. The supernatant obtained by centrifugation was then measured spectrophotometrically at an absorption wavelength of 605 nm. The percent inhibition of inflammation of the group of rats to which the test drug was administered was determined relative to the control group.

5-lipoxygenase = target: T1, 5-lipoxygenase (Cavia porcellus, UniProt A0A286X958); assay: 5-Lipoxygenase inhibitory activity (5-HITE production by polymorphonuclear leukocyte enzyme fraction); format: biochemical, male guinea pigs of the Hartley strain; conditions: inhibition of production of 5-HITE from [14C]-arachidonic acid; 30°C, 30 minutes, pH 7.4; read-out: IC₅₀ (converted)
T1 construct: The supernatant was isolated as an enzyme fraction; from tissue; host or cells: Casein-elicited peritoneal polymorphonuclear leukocytes of male Hartley guinea pigs; sonicated, 10,000 G supernatant
T1 sequence (A0A286X958 1-674): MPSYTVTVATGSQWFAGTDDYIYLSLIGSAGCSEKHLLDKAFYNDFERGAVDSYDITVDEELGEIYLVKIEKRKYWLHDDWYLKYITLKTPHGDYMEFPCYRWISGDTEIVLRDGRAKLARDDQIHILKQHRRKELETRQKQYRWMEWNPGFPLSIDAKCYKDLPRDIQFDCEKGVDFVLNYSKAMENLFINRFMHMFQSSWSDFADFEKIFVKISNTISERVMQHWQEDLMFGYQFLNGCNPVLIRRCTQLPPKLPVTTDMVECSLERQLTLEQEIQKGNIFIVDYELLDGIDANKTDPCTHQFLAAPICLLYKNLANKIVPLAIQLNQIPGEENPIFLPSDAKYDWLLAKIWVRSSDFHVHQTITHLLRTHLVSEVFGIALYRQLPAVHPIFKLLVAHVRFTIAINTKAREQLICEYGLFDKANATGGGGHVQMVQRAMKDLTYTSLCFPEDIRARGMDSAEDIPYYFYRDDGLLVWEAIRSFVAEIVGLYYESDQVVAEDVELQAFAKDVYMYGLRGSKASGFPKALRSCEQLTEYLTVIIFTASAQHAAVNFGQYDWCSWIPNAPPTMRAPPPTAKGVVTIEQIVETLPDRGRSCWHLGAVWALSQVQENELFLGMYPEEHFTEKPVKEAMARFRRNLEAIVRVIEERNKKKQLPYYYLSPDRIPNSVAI
Experimental: The preparation of polymorphonuclear leukocytes was carried out by the method of Sbarra et al [Sbarra A.J. and Karnovsky, M. L.; J. Biol. Chem., 234, 1355 - 1362 (1959)]. Specifically, a 2% w/v aqueous casein solution was administered intraperitoneally to male guinea pigs of the Hartley strain, each weighing about 400 - 500 g. The polymorphonuclear leukocytes were harvested from the peritoneal exudate 14 - 16 hours after the administration. The preparation of enzyme was carried out by the method of Yoshimoto et al [Yoshimoto, T., Furakawa, M., Yamamoto, S., Horie, T. and Watanabe-Kohno, S.; Biochem. Biophys. Commun., 116, 612 - 618 (1983)]. The harvested polymorphonuclear leukocytes were suspended in a 50 mM phosphate buffer solution (pH = 7.4) containing 10% ethylene glycol and 1mM EDTA at a density of 1 x 10⁸ cells/ml. The suspension was subjected to ultrasound twice, each time for 30 seconds at 20 KHz, and was then centrifuged for 10 minutes at 10,000 G. The supernatant was isolated as an enzyme fraction, which was stored at -80°C. The enzyme assay was carried out by a modification of Ochi's method [Ochi, K., Yoshimoto, T., Yamamoto., S., Taniguchi, K. and Miyamoto, T.; J. Biol. Chem., 258, 5754-5758 (1983)]. Specifically, 2 mM CaCℓ₂, 1 mM glutathione, 2 mM ATP (adenosine-5′-triphosphate), 16 µM [¹⁴C]-arachidonic acid (0.16 µCi, dissolved in 5 µl ethanol), the test compound (dissolved in 4 µl DMSO) and the enzyme solution (containing 200 µg of protein) were made up to a final volume of 200 µl in a 50 mM potassium phosphate buffer solution (pH = 7.4). The test compound and the enzyme were preincubated at 30°C for 5 minutes. After the addition of the arachidonic acid, the mixture was incubated at 30°C for 30 minutes. The reaction was stopped by the addition of 50µl of 0.2N citric acid. The reaction mixture was then extracted with ethyl acetate and the extract was concentrated under a stream of nitrogen. The concentrate was subjected to thin layer chromatography and eluted with a 85 : 15 : 0.1 by volume mixture of diethyl ether, petroleum ether and acetic acid. The 5-hydroxyicosatetraenoic acid (5-HITE) fraction of the plate was identified with a radioactive scanner and the radioactivity was measured. The IC₅₀ (µg/ml) was calculated against the inhibitory rate of the production of 5-HITE of a control group, to which a test compound was not administered.

Compound | ED50 [1] [mg/kg] | ED50 ([2]; ED₅₀, Wistar rats) [mg/kg] | inhibition in vivo at 50 mg/kg [3] [%] | responders at 50 mg/kg [2] [%] | Toxicity (mouse) [4] | inhibition in vivo at 50 mg/kg [5] [%] | ED50 [5] [mg/kg] | further results
3-methoxy-1-(4-methoxy-6-methylpyrimidin-2-yl)-5-methylpyrazole [Mepirizole, reference compound] | – | – | – | – | – | – | – | Anti-inflammatory Carrageenan (ID₅₀) [1]: 106 mg/kg; Analgesic Randall-Selitto (ED₅₀) ([2]; ED₅₀, Wistar rats): 63.9 mg/kg
CN(C)CCCOc1nn(Cc2ccccc2)c2ccccc12 [Benzydamine, reference compound] | 193 | > 200 | – | – | – | – | – | –
CN/C(=N/CCSCc1nc[nH]c1C)NC#N [Cimetidine, reference compound] | – | – | – | – | – | – | – | Suppression rate (%) (gastric acid secretions; dosage 10 mg/kg i.d.): 62%; Suppression rate (%) (gastric acid secretions; dosage 30 mg/kg i.d.): 58%
FC(F)(F)c1ccc(-c2cc3[nH]ccn3n2)cc1 [Example 1, 6-(4-Trifluoromethylphenyl)-1H-imidazo[1,2-b]pyrazole] | – | – | 44.2 | 80 | 0/3 | – | – | –
FC(F)(F)c1cccc(-c2cc3[nH]ccn3n2)c1 [Example 2] | – | – | 54 | 60 | 0/3 | 69.6 | – | –
c1ccc(-c2cc3[nH]ccn3n2)cc1 [Example 3, 6-phenyl-1H-imidazo[1,2-b]pyrazole] | 36.6 | 6.1 | 65.1 | 100 | 0/5 | 88 | 13.9 | Suppression rate (%) (gastric acid secretions; dosage 10 mg/kg i.d.): 66%; Suppression rate (%) (gastric acid secretions; dosage 30 mg/kg i.d.): 85%
Cc1c(-c2ccccc2)nn2cc[nH]c12 [Example 4, 7-methyl-6-phenyl-1H-imidazo[1,2-b]pyrazole] | 34.1 | 2.4 | 64.9 | 100 | 0/5 | 60.5 | 26.7 | Suppression rate (%) (gastric acid secretions; dosage 10 mg/kg i.d.): 67%; Suppression rate (%) (gastric acid secretions; dosage 30 mg/kg i.d.): 100%
COc1ccc(-c2cc3[nH]ccn3n2)cc1 [Example 5] | – | – | 53.7 | 100 | 0/3 | 67.6 | – | –
Clc1ccc(-c2cc3[nH]ccn3n2)cc1 [Example 8, 6-(p-chlorophenyl)-1H-imidazo[1,2-b]pyrazole] | – | – | 76.5 | 100 | 0/3 | 74.7 | – | –
CCc1c(-c2ccccc2)nn2cc[nH]c12 [Example 10] | – | – | 51.3 | 100 | 0/3 | 56.3 | – | IC50 (5-lipoxygenase): 5.21 µM
CC(C)c1c(-c2ccccc2)nn2cc[nH]c12 [Example 11] | – | – | – | – | – | – | – | IC50 (5-lipoxygenase): 8.88 µM
CCCCc1c(-c2ccccc2)nn2cc[nH]c12 [Example 12] | – | – | – | – | – | – | – | IC50 (5-lipoxygenase): 3.93 µM
c1csc(-c2cc3[nH]ccn3n2)c1 [Example 20, 6-(2-Thienyl)-1H-imidazo[1,2-b]pyrazole] | 17.1 | 8 | 89.3 | 100 | 0/3 | 79.6 | 7 | Suppression rate (%) (gastric acid secretions; dosage 10 mg/kg i.d.): 84%; Suppression rate (%) (gastric acid secretions; dosage 30 mg/kg i.d.): 93%
Cc1c(-c2cccs2)nn2cc[nH]c12 [Example 21, 7-Methyl-6-(2-thienyl)-1H-imidazo[1,2-b]pyrazole] | 22.3 | 10 | 53.4 | 100 | 0/3 | – | 7.9 | inhibition in vivo at 25 mg/kg [5]: 78.1%
c1coc(-c2cc3[nH]ccn3n2)c1 [Example 22, 6-(2-Furyl)-1H-imidazo[1,2-b]pyrazole] | – | – | 76.3 | – | 0/3 | – | – | Analgesic effect (Randall-Selitto) [2]: 4/5*
CCc1c(-c2cccs2)nn2cc[nH]c12 [Example 24] | – | – | 71.9 | – | 0/3 | – | – | Analgesic effect (Randall-Selitto) [2]: 4/5*
c1ccc(-c2cnn3cc[nH]c23)cc1 [Example 29, 7-Phenyl-1H-imidazo[1.2-b]pyrazole] | 20.1 | 5.1 | – | – | 0/3 | – | 14.8 | inhibition in vivo at 25 mg/kg [5]: 72.2%; inhibition in vivo at 25 mg/kg [3]: 63.2%; Analgesic effect (Randall-Selitto) [2]: 5/5*
Cc1nn2cc[nH]c2c1-c1ccccc1 [Example 30, 6-methyl-7-phenyl-1H-imidazo[1,2-b]pyrazole] | 25 | 5.9 | – | – | 0/3 | – | – | inhibition in vivo at 25 mg/kg [3]: 50%; Analgesic effect (Randall-Selitto) [2]: 5/5*; IC50 (5-lipoxygenase): 2.53 µM
c1csc(-c2cnn3cc[nH]c23)c1 [Example 32, 7-(2-thienyl)-1H-imidazo[1,2-b]pyrazole] | 23.4 | 6.9 | – | – | 0/3 | – | 10.9 | inhibition in vivo at 25 mg/kg [5]: 82.5%; inhibition in vivo at 25 mg/kg [3]: 54.7%; Analgesic effect (Randall-Selitto) [2]: 5/5*
CCCCCCCCCc1c(-c2ccccc2)nn2cc[nH]c12 [Example 41] | – | – | – | – | – | – | – | IC50 (5-lipoxygenase): 2.13 µM
